*1 amine or outer side, *2 acyl side, *3 side chain or, on linkers, in order; H or OH if unused. Where a SMILES comes first, the peptide text is derived from it. Side-chain parts run from the residue outwards. [ ]: non-standard residue; d: D form. The star is where a group is joined. C20 diacid = O=C(O)CCCCCCCCCCCCCCCCCCC(=O)*; αMePhe(2-F) = C[C@](N)(Cc1ccccc1F)C(=O)O; γGlu = O=C(O)[C@H](CCC(=O)[*:2])N[*:1]; 4Pal = N[C@@H](Cc1ccncc1)C(=O)O; αMeL = CC(C)C[C@](C)(N)C(=O)O; Iva = CC[C@](C)(N)C(=O)O; AEEA = NCCOCCOCC(=O)O; Aib = CC(C)(N)C(=O)O
Biological target: T1, human GcgR (Homo sapiens, UniProt P47871)
T1 construct: expressed in transfected cells; crude membranes
T1 sequence (P47871 26-477): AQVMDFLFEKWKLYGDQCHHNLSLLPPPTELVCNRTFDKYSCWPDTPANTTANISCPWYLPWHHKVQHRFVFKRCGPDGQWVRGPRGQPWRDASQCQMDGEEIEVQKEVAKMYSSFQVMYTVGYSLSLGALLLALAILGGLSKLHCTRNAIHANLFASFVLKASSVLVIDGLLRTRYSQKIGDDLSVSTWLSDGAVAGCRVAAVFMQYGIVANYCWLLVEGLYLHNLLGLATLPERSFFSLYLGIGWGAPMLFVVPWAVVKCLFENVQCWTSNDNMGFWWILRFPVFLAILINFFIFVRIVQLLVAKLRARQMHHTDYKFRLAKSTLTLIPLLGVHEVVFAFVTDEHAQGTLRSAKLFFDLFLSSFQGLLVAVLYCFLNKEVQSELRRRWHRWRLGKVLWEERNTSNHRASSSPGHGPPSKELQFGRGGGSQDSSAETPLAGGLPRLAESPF
Assay: [125I]-Glucagon binding, SPA with WGA beads, 0.1% bacitracin
Details: geometric mean, read-out: hGcgR Ki
Outline: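 SPA competition binding with WGA beads on crude membranes from HEK293 cells stably expressing hGcgR. Buffer: 25 mM HEPES pH 7.4, 2.5 mM CaCl2, 1 mM MgCl2, 0.1% bacitracin, 0.003% Tween-20; 10-point 3-fold dilutions, NSB with 1 μM Gcg.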

Compound	Ki [nM]
CC[C@H](C)[C@H](NC(=O)[C@H](CO)NC(=O)[C@H](Cc1ccc(O)cc1)NC(=O)[C@H](CC(=O)O)NC(=O)[C@H](CO)NC(=O)[C@@H](NC(=O)[C@](C)(Cc1ccccc1F)NC(=O)[C@@H](NC(=O)CNC(=O)[C@H](CCC(=O)O)NC(=O)[C@H](C)NC(=O)[C@@H](Cc1ccc(O)cc1)NC(C)=O)[C@@H](C)O)[C@@H](C)CC)C(=O)N[C@@H](C)C(=O)N[C@@H](CC(C)C)C(=O)N[C@@H](CC(=O)O)C(=O)N[C@@H](CCCCN)C(=O)N[C@@H](CCCCNC(=O)COCCOCCNC(=O)COCCOCCNC(=O)CC[C@H](NC(=O)CCCCCCCCCCCCCCCCCCC(=O)O)C(=O)O)C(=O)N[C@@H](Cc1c[nH]cn1)C(=O)N[C@@H](CCC(N)=O)C(=O)NC(C)(C)C(=O)N[C@@H](CCC(=O)O)C(=O)N[C@@H](Cc1ccccc1)C(=O)N[C@H](C(=O)N[C@@H](CC(N)=O)C(=O)N[C@@H](Cc1ccc(O)cc1)C(=O)N[C@@H](CC(C)C)C(=O)N[C@@H](CC(C)C)C(=O)N[C@@H](CCC(=O)O)C(=O)NCC(=O)NCC(=O)N1CCC[C@H]1C(=O)N[C@@H](CO)C(=O)N[C@@H](CO)C(=O)NCC(=O)N[C@@H](C)C(=O)N1CCC[C@H]1C(=O)N1CCC[C@H]1C(=O)N1CCC[C@H]1C(=O)N[C@@H](CO)C(N)=O)C(C)C [Example 33] (Ac-[dY]AEGT[αMePhe(2-F)]ISDYSIALDKK([AEEA-AEEA-γGlu-C20 diacid])HQ[Aib]EFVNYLLEGGPSSGAPPPS-NH2)	63.5
CC[C@H](C)[C@H](NC(=O)[C@H](CO)NC(=O)[C@H](Cc1ccc(O)cc1)NC(=O)[C@H](CC(=O)O)NC(=O)[C@H](CO)NC(=O)[C@@H](NC(=O)[C@](C)(Cc1ccccc1F)NC(=O)[C@@H](NC(=O)CNC(=O)[C@H](CCC(=O)O)NC(=O)C(C)(C)NC(=O)[C@@H](N)Cc1ccc(O)cc1)[C@@H](C)O)[C@@H](C)CC)C(=O)N[C@@](C)(CC(C)C)C(=O)N[C@@H](CC(C)C)C(=O)N[C@@H](CC(=O)O)C(=O)N[C@@H](CCCCN)C(=O)N[C@@H](CCCCNC(=O)COCCOCCNC(=O)COCCOCCNC(=O)CC[C@H](NC(=O)CCCCCCCCCCCCCCCCCCC(=O)O)C(=O)O)C(=O)N[C@@H](Cc1c[nH]cn1)C(=O)N[C@@H](CCC(N)=O)C(=O)NC(C)(C)C(=O)N[C@@H](CC(=O)O)C(=O)N[C@@H](Cc1ccccc1)C(=O)N[C@H](C(=O)N[C@@H](CCC(=O)O)C(=O)N[C@@H](Cc1ccncc1)C(=O)N[C@@H](CC(C)C)C(=O)N[C@@H](CC(C)C)C(=O)N[C@@H](C)C(=O)NCC(=O)NCC(=O)N1CCC[C@H]1C(=O)N[C@@H](CO)C(=O)N[C@@H](CO)C(=O)NCC(=O)N[C@@H](C)C(=O)N1CCC[C@H]1C(=O)N1CCC[C@H]1C(=O)N1CCC[C@H]1C(=O)N[C@@H](CO)C(N)=O)C(C)C [Example 51] (H-Y[Aib]EGT[αMePhe(2-F)]ISDYSI[αMeL]LDKK([AEEA-AEEA-γGlu-C20 diacid])HQ[Aib]DFVE[4Pal]LLAGGPSSGAPPPS-NH2)	26.7
CC[C@H](C)[C@H](NC(=O)[C@H](Cc1ccccc1)NC(=O)[C@@H](NC(=O)CNC(=O)[C@H](CCC(=O)O)NC(=O)C(C)(C)NC(=O)[C@@H](N)Cc1ccc(O)cc1)[C@@H](C)O)C(=O)N[C@@H](CO)C(=O)N[C@@H](CC(=O)O)C(=O)N[C@@H](Cc1ccc(O)cc1)C(=O)N[C@@H](CO)C(=O)N[C@H](C(=O)N[C@@](C)(CC(C)C)C(=O)N[C@@H](CC(C)C)C(=O)N[C@@H](CC(=O)O)C(=O)N[C@@H](CCCCN)C(=O)N[C@@H](CCCCNC(=O)COCCOCCNC(=O)COCCOCCNC(=O)CC[C@H](NC(=O)CCCCCCCCCCCCCCCCCCC(=O)O)C(=O)O)C(=O)N[C@@H](Cc1c[nH]cn1)C(=O)N[C@@H](CCC(N)=O)C(=O)NC(C)(C)C(=O)N[C@@H](CC(=O)O)C(=O)N[C@@H](Cc1ccccc1)C(=O)N[C@H](C(=O)N[C@@H](CCC(=O)O)C(=O)N[C@@H](Cc1ccncc1)C(=O)N[C@@H](CC(C)C)C(=O)N[C@@H](CC(C)C)C(=O)N[C@@H](CCC(=O)O)C(=O)N[C@@H](CCC(N)=O)C(=O)NCC(=O)N1CCC[C@H]1C(=O)N[C@@H](CO)C(=O)N[C@@H](CO)C(=O)NCC(=O)N[C@@H](C)C(=O)N1CCC[C@H]1C(=O)N1CCC[C@H]1C(=O)N1CCC[C@H]1C(=O)N[C@@H](CO)C(N)=O)C(C)C)[C@@H](C)CC [Example 46] (H-Y[Aib]EGTFISDYSI[αMeL]LDKK([AEEA-AEEA-γGlu-C20 diacid])HQ[Aib]DFVE[4Pal]LLEQGPSSGAPPPS-NH2)	435
CC[C@H](C)[C@H](NC(=O)[C@H](Cc1ccccc1)NC(=O)[C@@H](NC(=O)CNC(=O)[C@H](CCC(=O)O)NC(=O)C(C)(C)NC(=O)[C@@H](N)Cc1ccc(O)cc1)[C@@H](C)O)C(=O)N[C@@H](CO)C(=O)N[C@@H](CC(=O)O)C(=O)N[C@@H](Cc1ccc(O)cc1)C(=O)N[C@@H](CO)C(=O)N[C@H](C(=O)N[C@@](C)(CC(C)C)C(=O)N[C@@H](CC(C)C)C(=O)N[C@@H](CC(=O)O)C(=O)N[C@@H](CCCCN)C(=O)N[C@@H](CCCCNC(=O)COCCOCCNC(=O)COCCOCCNC(=O)CC[C@H](NC(=O)CCCCCCCCCCCCCCCCCCC(=O)O)C(=O)O)C(=O)N[C@@H](Cc1c[nH]cn1)C(=O)N[C@@H](CCC(N)=O)C(=O)NC(C)(C)C(=O)N[C@@H](CCC(=O)O)C(=O)N[C@@H](Cc1ccccc1)C(=O)N[C@H](C(=O)N[C@@H](CCC(=O)O)C(=O)N[C@@H](Cc1ccc(O)cc1)C(=O)N[C@@H](CC(C)C)C(=O)N[C@@H](CC(C)C)C(=O)N[C@@H](CCC(=O)O)C(=O)N[C@@H](CCC(N)=O)C(=O)NCC(=O)N1CCC[C@H]1C(=O)N[C@@H](CO)C(=O)N[C@@H](CO)C(=O)NCC(=O)N[C@@H](C)C(=O)N1CCC[C@H]1C(=O)N1CCC[C@H]1C(=O)N1CCC[C@H]1C(=O)N[C@@H](CO)C(N)=O)C(C)C)[C@@H](C)CC [Example 63] (H-Y[Aib]EGTFISDYSI[αMeL]LDKK([AEEA-AEEA-γGlu-C20 diacid])HQ[Aib]EFVEYLLEQGPSSGAPPPS-NH2)	185
CC[C@H](C)[C@H](NC(=O)[C@H](CO)NC(=O)[C@H](Cc1ccc(O)cc1)NC(=O)[C@H](CC(=O)O)NC(=O)[C@H](CO)NC(=O)[C@@H](NC(=O)[C@](C)(Cc1ccccc1F)NC(=O)[C@@H](NC(=O)CNC(=O)[C@H](CCC(=O)O)NC(=O)C(C)(C)NC(=O)[C@@H](N)Cc1ccc(O)cc1)[C@@H](C)O)[C@@H](C)CC)C(=O)N[C@@H](C)C(=O)N[C@@H](CC(C)C)C(=O)N[C@@H](CC(=O)O)C(=O)N[C@@H](CCCCN)C(=O)N[C@@H](CCCCNC(=O)COCCOCCNC(=O)COCCOCCNC(=O)CC[C@H](NC(=O)CCCCCCCCCCCCCCCCCCC(=O)O)C(=O)O)C(=O)N[C@@H](Cc1c[nH]cn1)C(=O)N[C@@H](CCC(N)=O)C(=O)NC(C)(C)C(=O)N[C@@H](CC(=O)O)C(=O)N[C@@H](Cc1ccccc1)C(=O)N[C@H](C(=O)N[C@@H](CCC(=O)O)C(=O)N[C@@H](Cc1ccc(O)cc1)C(=O)N[C@@H](CC(C)C)C(=O)N[C@@H](CC(C)C)C(=O)N[C@@H](CCC(=O)O)C(=O)NCC(=O)NCC(=O)N1CCC[C@H]1C(=O)N[C@@H](CO)C(=O)N[C@@H](CO)C(=O)NCC(=O)N[C@@H](C)C(=O)N1CCC[C@H]1C(=O)N1CCC[C@H]1C(=O)N1CCC[C@H]1C(=O)N[C@@H](CO)C(N)=O)C(C)C [Example 37] (H-Y[Aib]EGT[αMePhe(2-F)]ISDYSIALDKK([AEEA-AEEA-γGlu-C20 diacid])HQ[Aib]DFVEYLLEGGPSSGAPPPS-NH2)	51.4
CC[C@H](C)[C@H](NC(=O)[C@H](CO)NC(=O)[C@H](Cc1ccc(O)cc1)NC(=O)[C@H](CC(=O)O)NC(=O)[C@H](CO)NC(=O)[C@@H](NC(=O)[C@](C)(CC)NC(=O)[C@@H](NC(=O)CNC(=O)[C@H](CCC(=O)O)NC(=O)C(C)(C)NC(=O)[C@@H](N)Cc1ccc(O)cc1)[C@@H](C)O)[C@@H](C)CC)C(=O)N[C@@](C)(CC(C)C)C(=O)N[C@@H](CC(C)C)C(=O)N[C@@H](CC(=O)O)C(=O)N[C@@H](CCCCN)C(=O)N[C@@H](CCCCNC(=O)COCCOCCNC(=O)COCCOCCNC(=O)CC[C@H](NC(=O)CCCCCCCCCCCCCCCCCCC(=O)O)C(=O)O)C(=O)N[C@@H](Cc1c[nH]cn1)C(=O)N[C@@H](CCC(N)=O)C(=O)NC(C)(C)C(=O)N[C@@H](CC(=O)O)C(=O)N[C@@H](Cc1ccccc1)C(=O)N[C@H](C(=O)N[C@@H](CCC(=O)O)C(=O)N[C@@H](Cc1ccncc1)C(=O)N[C@@H](CC(C)C)C(=O)N[C@@H](CC(C)C)C(=O)N[C@@H](C)C(=O)NCC(=O)NCC(=O)N1CCC[C@H]1C(=O)N[C@@H](CO)C(=O)N[C@@H](CO)C(=O)NCC(=O)N[C@@H](C)C(=O)N1CCC[C@H]1C(=O)N1CCC[C@H]1C(=O)N1CCC[C@H]1C(=O)N[C@@H](CO)C(N)=O)C(C)C [Example 55] (H-Y[Aib]EGT[Iva]ISDYSI[αMeL]LDKK([AEEA-AEEA-γGlu-C20 diacid])HQ[Aib]DFVE[4Pal]LLAGGPSSGAPPPS-NH2)	> 960
CC[C@H](C)[C@H](NC(=O)[C@H](Cc1ccccc1)NC(=O)[C@@H](NC(=O)CNC(=O)[C@H](CCC(=O)O)NC(=O)C(C)(C)NC(=O)[C@@H](N)Cc1ccc(O)cc1)[C@@H](C)O)C(=O)N[C@@H](CO)C(=O)N[C@@H](CC(=O)O)C(=O)N[C@@H](Cc1ccc(O)cc1)C(=O)N[C@@H](CO)C(=O)N[C@H](C(=O)N[C@@](C)(CC(C)C)C(=O)N[C@@H](CC(C)C)C(=O)N[C@@H](CC(=O)O)C(=O)N[C@@H](CCCCN)C(=O)N[C@@H](CCCCNC(=O)COCCOCCNC(=O)COCCOCCNC(=O)CC[C@H](NC(=O)CCCCCCCCCCCCCCCCCCC(=O)O)C(=O)O)C(=O)N[C@@H](Cc1c[nH]cn1)C(=O)N[C@@H](CCC(N)=O)C(=O)NC(C)(C)C(=O)N[C@@H](CC(=O)O)C(=O)N[C@@H](Cc1ccccc1)C(=O)N[C@H](C(=O)N[C@@H](CCC(=O)O)C(=O)N[C@@H](Cc1ccncc1)C(=O)N[C@@H](CC(C)C)C(=O)N[C@@H](CC(C)C)C(=O)N[C@@H](CCC(=O)O)C(=O)NCC(=O)NCC(=O)N1CCC[C@H]1C(=O)N[C@@H](CO)C(=O)N[C@@H](CO)C(=O)NCC(=O)N[C@@H](C)C(=O)N1CCC[C@H]1C(=O)N1CCC[C@H]1C(=O)N1CCC[C@H]1C(=O)N[C@@H](CO)C(N)=O)C(C)C)[C@@H](C)CC [Example 47] (H-Y[Aib]EGTFISDYSI[αMeL]LDKK([AEEA-AEEA-γGlu-C20 diacid])HQ[Aib]DFVE[4Pal]LLEGGPSSGAPPPS-NH2)	175
